Laboratory results: the NIST ThermoML archive (doi:10.1021/je049918m)
Where “and” joins values, the source holds several entries; their conditions need not be identical. Equal values may be shown once. Numbers after ± are expanded uncertainties.

Settings: Liquid, Falling or rolling sphere viscometry

[2H]O[2H] [water-d2] showed a viscosity (255.65 K, 212200 kPa) of 3.963 ± 0.055 mPa·s, a viscosity (255.65 K, 220100 kPa) of 3.973 ± 0.055 mPa·s and a viscosity (255.65 K, 239200 kPa) of 4.012 ± 0.055 mPa·s. It also gave a viscosity (255.65 K, 249500 kPa) of 4.036 ± 0.056 mPa·s, a viscosity (258.15 K, 196900 kPa) of 3.566 ± 0.049 mPa·s and a viscosity (258.15 K, 215300 kPa) of 3.588 ± 0.049 mPa·s. For the same compound, the viscosity (258.15 K, 242900 kPa) was 3.629 ± 0.05 mPa·s, the viscosity (258.15 K, 271000 kPa) was 3.697 ± 0.051 mPa·s and the viscosity (258.15 K, 298500 kPa) was 3.777 ± 0.052 mPa·s. The viscosity (258.15 K, 315600 kPa) was 3.835 ± 0.053 mPa·s, the viscosity (263.15 K, 153200 kPa) was 2.939 ± 0.04 mPa·s and the viscosity (263.15 K, 160800 kPa) was 2.937 ± 0.04 mPa·s. It also gave a viscosity (263.15 K, 185300 kPa) of 2.944 ± 0.04 mPa·s, a viscosity (263.15 K, 200800 kPa) of 2.953 ± 0.041 mPa·s and a viscosity (263.15 K, 249500 kPa) of 3.02 ± 0.042 mPa·s. It also gave a viscosity (263.15 K, 299600 kPa) of 3.125 ± 0.043 mPa·s, a viscosity (263.15 K, 347100 kPa) of 3.26 ± 0.045 mPa·s and a viscosity (263.15 K, 383400 kPa) of 3.381 ± 0.047 mPa·s. For the same compound, the viscosity (268.15 K, 109700 kPa) was 2.494 ± 0.034 mPa·s, the viscosity (268.15 K, 125300 kPa) was 2.475 ± 0.034 mPa·s and the viscosity (268.15 K, 150900 kPa) was 2.468 ± 0.034 mPa·s. For the same compound, the viscosity (268.15 K, 174700 kPa) was 2.464 ± 0.034 mPa·s, the viscosity (268.15 K, 201200 kPa) was 2.481 ± 0.034 mPa·s and the viscosity (268.15 K, 251400 kPa) was 2.535 ± 0.035 mPa·s. It also gave a viscosity (268.15 K, 289200 kPa) of 2.601 ± 0.036 mPa·s, a viscosity (268.15 K, 325500 kPa) of 2.675 ± 0.037 mPa·s and a viscosity (268.15 K, 390600 kPa) of 2.85 ± 0.039 mPa·s. For the same compound, the viscosity (273.15 K, 52000 kPa) was 2.196 ± 0.03 mPa·s, the viscosity (273.15 K, 69600 kPa) was 2.159 ± 0.03 mPa·s and the viscosity (273.15 K, 99700 kPa) was 2.116 ± 0.029 mPa·s. The viscosity (273.15 K, 130400 kPa) was 2.098 ± 0.029 mPa·s, the viscosity (273.15 K, 150600 kPa) was 2.096 ± 0.029 mPa·s and the viscosity (273.15 K, 177300 kPa) was 2.103 ± 0.029 mPa·s. The viscosity (273.15 K, 204300 kPa) was 2.119 ± 0.029 mPa·s, the viscosity (273.15 K, 223000 kPa) was 2.135 ± 0.029 mPa·s and the viscosity (273.15 K, 252900 kPa) was 2.165 ± 0.03 mPa·s. It also gave a viscosity (273.15 K, 279500 kPa) of 2.203 ± 0.03 mPa·s, a viscosity (273.15 K, 302900 kPa) of 2.234 ± 0.031 mPa·s and a viscosity (273.15 K, 350500 kPa) of 2.318 ± 0.032 mPa·s. The viscosity (273.15 K, 357500 kPa) was 2.336 ± 0.032 mPa·s, the viscosity (273.15 K, 395200 kPa) was 2.435 ± 0.034 mPa·s and the viscosity (278.15 K, 100 kPa) was 1.987 ± 0.027 mPa·s. It also gave a viscosity (278.15 K, 3100 kPa) of 1.977 ± 0.027 mPa·s, a viscosity (278.15 K, 5600 kPa) of 1.968 ± 0.027 mPa·s and a viscosity (278.15 K, 8100 kPa) of 1.961 ± 0.027 mPa·s. For the same compound, the viscosity (278.15 K, 10800 kPa) was 1.952 ± 0.027 mPa·s, the viscosity (278.15 K, 25900 kPa) was 1.911 ± 0.026 mPa·s and the viscosity (278.15 K, 50800 kPa) was 1.862 ± 0.026 mPa·s. The viscosity (278.15 K, 75600 kPa) was 1.829 ± 0.025 mPa·s, the viscosity (278.15 K, 100700 kPa) was 1.811 ± 0.025 mPa·s and the viscosity (278.15 K, 125600 kPa) was 1.803 ± 0.025 mPa·s. For the same compound, the viscosity (278.15 K, 150500 kPa) was 1.802 ± 0.025 mPa·s, the viscosity (278.15 K, 174500 kPa) was 1.809 ± 0.025 mPa·s and the viscosity (278.15 K, 199100 kPa) was 1.822 ± 0.025 mPa·s. It also gave a viscosity (278.15 K, 224100 kPa) of 1.841 ± 0.025 mPa·s, a viscosity (278.15 K, 249600 kPa) of 1.865 ± 0.026 mPa·s and a viscosity (278.15 K, 299700 kPa) of 1.922 ± 0.026 mPa·s. For the same compound, the viscosity (278.15 K, 349100 kPa) was 1.993 ± 0.027 mPa·s, the viscosity (283.15 K, 100 kPa) was 1.677 ± 0.023 mPa·s and the viscosity (283.15 K, 200 kPa) was 1.676 ± 0.023 mPa·s and 1.677 ± 0.023 mPa·s. For the same compound, the viscosity (283.15 K, 3000 kPa) was 1.67 ± 0.023 mPa·s, the viscosity (283.15 K, 5600 kPa) was 1.665 ± 0.023 mPa·s and the viscosity (283.15 K, 8100 kPa) was 1.66 ± 0.023 mPa·s. The viscosity (283.15 K, 10800 kPa) was 1.655 ± 0.023 mPa·s, the viscosity (283.15 K, 25800 kPa) was 1.629 ± 0.022 mPa·s and the viscosity (283.15 K, 50800 kPa) was 1.597 ± 0.022 mPa·s and 1.598 ± 0.022 mPa·s. For the same compound, the viscosity (283.15 K, 100800 kPa) was 1.569 ± 0.022 mPa·s and 1.567 ± 0.022 mPa·s, the viscosity (283.15 K, 125500 kPa) was 1.566 ± 0.022 mPa·s and the viscosity (283.15 K, 150600 kPa) was 1.57 ± 0.022 mPa·s. The viscosity (283.15 K, 150800 kPa) was 1.569 ± 0.022 mPa·s, the viscosity (283.15 K, 175500 kPa) was 1.579 ± 0.022 mPa·s and the viscosity (283.15 K, 199400 kPa) was 1.592 ± 0.022 mPa·s. It also gave a viscosity (283.15 K, 199700 kPa) of 1.592 ± 0.022 mPa·s, a viscosity (283.15 K, 224300 kPa) of 1.608 ± 0.022 mPa·s and a viscosity (283.15 K, 249600 kPa) of 1.629 ± 0.022 mPa·s. The viscosity (283.15 K, 249700 kPa) was 1.63 ± 0.022 mPa·s, the viscosity (283.15 K, 299200 kPa) was 1.678 ± 0.03 mPa·s and the viscosity (283.15 K, 299600 kPa) was 1.678 ± 0.03 mPa·s. The viscosity (283.15 K, 348600 kPa) was 1.737 ± 0.024 mPa·s, the viscosity (283.15 K, 348700 kPa) was 1.737 ± 0.024 mPa·s and the viscosity (298.15 K, 100 kPa) was 1.097 ± 0.015 mPa·s [middle of 6 runs]. It also gave a viscosity (298.15 K, 200 kPa) of 1.095 ± 0.015 mPa·s, a viscosity (298.15 K, 5600 kPa) of 1.092 ± 0.015 mPa·s and a viscosity (298.15 K, 8000 kPa) of 1.09 ± 0.015 mPa·s. For the same compound, the viscosity (298.15 K, 10300 kPa) was 1.091 ± 0.015 mPa·s, the viscosity (298.15 K, 10700 kPa) was 1.09 ± 0.015 mPa·s and the viscosity (298.15 K, 25700 kPa) was 1.084 ± 0.015 mPa·s. For the same compound, the viscosity (298.15 K, 30700 kPa) was 1.084 ± 0.015 mPa·s, the viscosity (298.15 K, 50700 kPa) was 1.079 ± 0.015 mPa·s and 1.081 ± 0.015 mPa·s and the viscosity (298.15 K, 60700 kPa) was 1.079 ± 0.015 mPa·s. For the same compound, the viscosity (298.15 K, 75600 kPa) was 1.08 ± 0.015 mPa·s, the viscosity (298.15 K, 90600 kPa) was 1.081 ± 0.015 mPa·s and the viscosity (298.15 K, 90700 kPa) was 1.081 ± 0.015 mPa·s. The viscosity (298.15 K, 100600 kPa) was 1.081 ± 0.015 mPa·s, the viscosity (298.15 K, 120700 kPa) was 1.086 ± 0.015 mPa·s and the viscosity (298.15 K, 125600 kPa) was 1.087 ± 0.015 mPa·s. The viscosity (298.15 K, 130600 kPa) was 1.089 ± 0.015 mPa·s, the viscosity (298.15 K, 150600 kPa) was 1.094 ± 0.015 mPa·s and 1.095 ± 0.015 mPa·s and the viscosity (298.15 K, 170500 kPa) was 1.104 ± 0.015 mPa·s. It also gave a viscosity (298.15 K, 175600 kPa) of 1.105 ± 0.015 mPa·s, a viscosity (298.15 K, 180600 kPa) of 1.108 ± 0.015 mPa·s and a viscosity (298.15 K, 200600 kPa) of 1.117 ± 0.015 mPa·s. For the same compound, the viscosity (298.15 K, 210200 kPa) was 1.122 ± 0.015 mPa·s, the viscosity (298.15 K, 210600 kPa) was 1.123 ± 0.015 mPa·s and the viscosity (298.15 K, 225500 kPa) was 1.131 ± 0.016 mPa·s. The viscosity (298.15 K, 240600 kPa) was 1.141 ± 0.016 mPa·s, the viscosity (298.15 K, 249700 kPa) was 1.146 ± 0.016 mPa·s and the viscosity (298.15 K, 270500 kPa) was 1.16 ± 0.016 mPa·s. For the same compound, the viscosity (298.15 K, 299600 kPa) was 1.181 ± 0.016 mPa·s, the viscosity (298.15 K, 300300 kPa) was 1.182 ± 0.016 mPa·s and the viscosity (298.15 K, 330100 kPa) was 1.205 ± 0.017 mPa·s. For the same compound, the viscosity (298.15 K, 331900 kPa) was 1.205 ± 0.017 mPa·s, the viscosity (298.15 K, 349000 kPa) was 1.221 ± 0.017 mPa·s and the viscosity (298.15 K, 359800 kPa) was 1.23 ± 0.017 mPa·s. The viscosity (298.15 K, 389400 kPa) was 1.257 ± 0.017 mPa·s.
